Laboratory results published in patent US5252566A, “Antithrombotic agents” (priority 1992, dated 1993).
Where a name gives a salt, the structure may show the parent alone. Where a SMILES comes first, the peptide text is derived from it. [ ]: non-standard residue; d: D form. dTic = O=C(O)[C@H]1Cc2ccccc2CN1; Aze = O=C(O)[C@@H]1CCN1

Target: T1, thrombin (Bos taurus, UniProt P00735)
T1 construct: purchased
Assay: biochemical
Settings: not given
Procedure: The assay was carried out in 50 μl buffer (0.03M Tris, 0.15M NaCl, pH 7.4) with 25 μl of thrombin solution (0.21 mg/ml of thrombostat powder in 0.06M Tris, 0.3M NaCl, pH 7.4) and 150 μl of an aqueous solution of the chromogenic substrate at a concentration of 0.25 mg/ml. Solutions of test compound (25 μl) at various concentrations were added. Rates of hydrolysis of the substrate were measured by monitoring the reactions at 405 nm for the release of p-nitroaniline. Standard curves were constructed by plotting free thrombin concentration against hydrolysis rate. […] The amount of free inhibitor in each assay was calculated by subtracting the number of moles of bound thrombin from the number of moles of added inhibitor (test compound).
The Kass value is the hypothetical equilibrium constant for the reaction between thrombin and the test compound (I). [drawing 23]
Kass was calculated for a range of concentrations of test compounds and the mean value is reported in units of liter per mole.

Row | Kd | Structure (SMILES)
1 | 90.9 nM | CC(C)(C)OC(=O)NC(C)(C(=O)N1CC[C@H]1C(=O)N[C@H](C=O)CCCNC(=N)N)c1ccccc1 (mixture of isomers) [Boc--DL--Phg(α-CH3)--Azt--Arg--H, N--Boc--DL--Phg(α-CH3)--Azt--Arg--H]
2 | 16.4 nM | CC(C)(C)OC(=O)N[C@@](C)(C(=O)N1CC[C@H]1C(=O)N[C@H](C=O)CCCN=C(N)N)c1ccccc1 [Boc--D--Phg(α-CH3)--Azt--Arg--H, N--Boc--D--Phg(α-CH3)--Azt--Arg--H]

Same assay, conditions: Table 1; mean over a range of concentrations of test compound; pH 7.4; read-out: Kass × 10^6 (Thrombin Inhibition Levels) (converted)

Row | Kd | Structure (SMILES)
3 | 7.87 nM | C[C@](NC(=O)C(F)(F)F)(C(=O)N1CC[C@H]1C(=O)N[C@H](C=O)CCCN=C(N)N)c1ccccc1 [TFA--D--Phg(α-Me)--Azt--Arg--H, N-[N-trifluoracetyl-D-(α-methyl)phenylglycyl)-L-azetidinyl-L-argininealdehyde hydrochloride]
4 | 28.6 nM | N=C(N)NCCC[C@@H](C=O)NC(=O)[C@@H]1CCN1C(=O)[C@H]1Cc2ccccc2CN1 [D-3-Tiq--Azt--Arg--H, D-1,2,3,4-Tetrahydroisoquinolin-3-oyl-L-azetidin-2-oyl-L-arginine aldehyde sulfate] (H-[dTic]-[Aze]-Arg-aldehyde)
5 | 66.7 nM | CC(=O)NC(C)(C(=O)N1CC[C@H]1C(=O)N[C@H](C=O)CCCNC(=N)N)c1ccccc1 (mixture of isomers) [Ac--Phg(α-CH3)--Azt--Arg--H, N--Acetyl--DL--Phg(α-CH3)--Azt--Arg--H]
6 | 37 nM | N=C(N)NCCC[C@@H](C=O)NC(=O)[C@@H]1CCN1C(=O)C1NCCc2ccccc21 (mixture of isomers) [DL-1-Tiq--Azt--Arg--H, DL-1,2,3,4-tetrahydroisoquinolin-1-oyl-L-azetidinyl-L-arginine aldehyde sulfate]
7 | 14.3 nM | CC(=O)N[C@@](C)(C(=O)N1CC[C@H]1C(=O)N[C@H](C=O)CCCNC(=N)N)c1ccccc1 [Ac--D--Phg(α-CH3)--Azt--Arg--H, N--Acetyl--D--Phg(α-CH3)--Azt--Arg--H]
